What was measured:
VEGF mRNA in MCF7 cells = experiment: Real-time quantitative RT-PCR of VEGF mRNA in MCF7 cells; type: cell-based, human; settings: hypoxic MCF7 cells, 200 nM and 600 nM
Experimental: We used real-time quantitative RT-PCR assays to determine the relative levels of VEGF mRNA in hypoxic cells treated with ETP compounds and control DKP compound. In parallel, cells treated with vehicle were used as controls. mRNA level of β-glucuronidase gene was used as a control in determining the relative levels of transcription.
MCF7 cells were maintained in RPMI-1640 media (Sigma) supplemented with 10% fetal bovine serum (Irvine Scientific). Cells were plated in 6-well dishes at a density of 2.4×10^5 cells/well using 2 mL of a 1.2×10^5 cell/mL suspension. […] After a 6 h incubation period at 37° C. in a humidified atmosphere with 5% CO2, hypoxia was induced by adding desferrioxamine mesylate (DFO, Sigma) to a final concentration of 300 μM and incubating cells for another 18 hours. Cells were washed twice with ice cold PBS and lysed immediately. Total RNA was isolated with RNeasy kit (Qiagen) according to the manufacturer's instructions and quantified by UV absorbance. The isolated RNA was further treated with DNase I (Ambion, DNAfree kit) to remove any remaining genomic DNA. Reverse transcription was performed with Powerscript II Reverse Transcriptase (Clontech) as recommended by the manufacturer.
Quantitative Reverse Transcript PCR (qRT-PCR) was employed to determine the effect of ETP compounds on VEGF and GLUT1 genes in HeLa cells both under normoxic and hypoxic conditions. For VEGF analysis, the forward primer 5′-AGGCCAGCACATAGGAGAGA-3′ and reverse primer 5′-TTTCCCTTTCCTCGAACTGA-3′ were used to amplify a 104-bp fragment from the 3′-translated region of the gene. For GLUT1 (SLC2A1) analysis we utilized the following sequences to yield a product of 179 bp: forward sequence 5′-TAGAAACATGGTTTTGAAATGC-3′, reverse sequence 5′-GGTAACAGGGATCAAACAGATT-3′. RNA levels were standardized by quantification of the β-glucuronidase as housekeeping gene. […] Data were analyzed with Applied Biosystems Sequence Detection System, version 1.2. […]

[1] = MTT cytotoxicity assay in A549 cells; type: cell-based; settings: human, A549 cells; A549, 48 h treatment, serum free F-12K medium
Experimental: (§1) FIG. 12 MTT cytotoxicity assay data for LS72 in A549 cell line. […]
(§2) Therefore the treatment of the cells was extended to 48 h in order to better determine its cytotoxicity.

[2] = system: A549 lung adenocarcinoma cell line; experiment: MTT cytotoxicity assay in A549 cells; type: cell-based; settings: Homo sapiens; A549, 24 h treatment; read-out: EC50 (viability)
Experimental: as §1, §2

VEGF mRNA in A549 cells = experiment: qRT-PCR of VEGF mRNA in A549 cells; type: cell-based
Experimental: (§3) FIG. 13 mRNA levels of three HIF1α inducible genes: VEGF, c-Met and Glut1 in A549 cells after treatment with LS72. Data from qRT-PCR experiments showing mRNA levels of three HIF1α inducible genes, VEGF, c-Met and Glut1 in A549 after treatment of the cells in a medium with 0.2% serum with LS72 (400 nM). Hypoxia was induced 300 μM by DFO. Error bars are ±s.e.m for the experiments performed in […]. Error bars are ±s.e.m. of experiments performed in triplicate. ***P<0.001, ** P<0.01, t test.
FIG. 15 mRNA levels for VEGF in A549 cell line, illustrating the dose response to LS72 treatment at three different concentrations. qRT-PCR assays were performed in order to determine the mRNA levels for VEGF in A549 cell line treated with LS72 at concentrations: 100 nM, 400 nM, 1600 nM. Hypoxia was induced by DFO (300 μM). Error bars are ±sem for the experiments performed in triplicate. Error bars are ±s.e.m. of experiments performed in triplicate. ** P<0.01, * P<0.05, t test.
(§4) After tests with various serum levels in the media and hypoxia induction methods, the conditions that worked remarkably and consistently well for the induction of HIF1α dependent genes were to keep A549 cells in 2% serum followed by treating cells with compound or control in the media with 0.2% serum for 48 h (FIG. 13). Under these conditions while hypoxia bag was the best option for induction of the LOX gene, the best hypoxic response leading to upregulation of many other HIF1α inducible genes was treatment with 300 μM DFO.
(§5) The hypoxia induction was done at a confluency of 85% cells in serum free F-12K medium with 300 μM DFO.

c-Met mRNA in A549 cells = experiment: qRT-PCR of c-Met mRNA in A549 cells; type: cell-based; settings: 300 μM DFO
Experimental: as §3
FIG. 16 mRNA levels for c-Met in A549 cell line showing dose response to LS72 at concentrations of 100 nM, 400 nM, 1600 nM. qRT-PCR was used to determine the mRNA levels of c-Met Hypoxia was induced with DFO (300 μM). Error bars are ±sem for the experiments performed in triplicate. Error bars are ±s.e.m. of experiments performed in triplicate. *** P<0.001, **P<0.01, # P<0.1, t test.
After tests with various serum levels in the media and hypoxia induction methods, the conditions that worked remarkably and consistently well for the induction of HIF1α dependent genes were to keep A549 cells in 2% serum followed by treating cells with compound or control in the media with 0.2% serum for 48 h (FIG. 13). […]

CXCR4 mRNA in A549 cells = experiment: qRT-PCR of CXCR4 mRNA in A549 cells; type: cell-based
Experimental: FIGS. 14 (A) qRT-PCR data for LOX and (B) CXCR4 genes in A549 cells treated with LS72. Hypoxia was induced by hypoxia bag. Cells were maintained in F-12K medium with 2% serum. After reaching 65% confluency the cells were grown in serum free media and treated with LS72 (400 nM). Hypoxia was induced with DFO (300 μM) for 48 h. Error bars are s.e.m. of experiments performed in triplicate. **P<0.01, t test.
FIG. 18 qRT-PCR data for A549 cells where hypoxia was induced in 85% confluent cells. […] Error bars are ±sem for the experiments performed in triplicate. ** P<0.01, # P<0.1, t test.
as §4, §5

CN1C(=O)[C@]2(Cc3ccc(CCc4ccc(C[C@@]56SS[C@@](CO)(C(=O)N5C)N(C)C6=O)cc4)cc3)SS[C@@]1(CO)C(=O)N2C (racemic) [LS72, 4,4′-((ethane-1,2-diylbis(4,1-phenylene))bis(methylene))bis(1-(hydroxymethyl)-5,7-dimethyl-2,3-dithia-5,7-diazabicyclo[2.2.2]octane-6,8-dione)]
effect on VEGF mRNA level (in words) (VEGF mRNA in MCF7 cells): downregulated VEGF | EC50 at 48 h [1]: 2800 nM | EC50 [2]: > 10000 nM | HIF1α inducible transcription of VEGF, dose response (VEGF mRNA in A549 cells; A549 85% confluent, hypoxia 300 μM DFO, 100 nM, 400 nM, 1600 nM): dose dependent decrease | reduction of VEGF mRNA levels (VEGF mRNA in A549 cells; A549, LS72 400 nM, 0.2% serum, 300 μM DFO, 48 h): 50% | VEGF transcription levels in normoxia (VEGF mRNA in A549 cells; A549, normoxia, 100 nM, 400 nM, 1600 nM): not changed significantly | c-Met transcriptional upregulation, dose response (c-Met mRNA in A549 cells; A549 85% confluent, 100 nM, 400 nM, 1600 nM): Dose-dependent decrease | c-Met mRNA level (in words) (c-Met mRNA in A549 cells; A549, LS72 400 nM, 0.2% serum, 48 h): significantly downregulated, essentially reaching its normoxic levels | CXCR4 mRNA levels, dose response (CXCR4 mRNA in A549 cells; A549 85% confluent, 300 μM DFO, 400 nM and 1600 nM): dose-dependent decrease | CXCR4 transcriptional activity (in words) (CXCR4 mRNA in A549 cells; A549, 400 nM): excellent inhibition of the transcriptional activity
